Consider 6 compounds from PubChem BioAssay AID1918948 (Molecular Pharmacology Branch, DTP, NCI, 2023).

“And” between values parts separate entries of the source, which are not always exact repeats. Equal entries are not always repeated.

In the test the test system is K-562 leukemia growth, % test/control. Description: Anticancer human tumor K-562 cell line growth inhibition.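 For all read-outs here: spheroids exposed to compounds for 7 days.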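 For viability, T/C: 100% = DMSO vehicle wells and lower values mean fewer viable cells.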 The note with it: spheroids with HUVEC and MSC; for viability, T/C: stronger effect = lower value. From the text:
Multicellular complex tumor spheroid response to LSD1 Inhibitor Iadademstat in combination with a variety of drugs and investigational agents in selected tumor cell lines
The current study was undertaken to assess response to LSD1 inhibitors in combination with standard-of-care drugs and investigational agents in solid tumor complex spheroid models as well as in the K-562 leukemia. Complex spheroids include a stromal component modeled by human endothelial cells (HUVEC) and fibroblasts modeled by human mesenchymal stem cells (MSCs). The concentration ranges selected for each drug and investigational agent were based upon clinically achievable concentrations if the clinical Cmax of the agent was known.
Compounds. The drugs and investigational agents used in this study are listed on Table 1. All of the agents used, including staurosporine (NSC755774) and gemcitabine (NSC613327), were obtained from the Developmental Therapeutics Program, NCI. FDA-approved anticancer drugs are available from the NCI at http://dtp.nci.nih.gov/branches/dscb/oncology_drugset_explanation.html. Drugs and investigational agents were >95% pure by proton nuclear magnetic resonance (NMR) and liquid chromatography/mass spectrometry (LC/MS). Stock solutions were prepared at 400x in DMSO, stored at -70 degrees C, and diluted in fresh medium prior to their use. The final concentration of DMSO in cell culture wells never exceeded 0.25% (v/v). The FDA-approved anticancer drug set is available from the Developmental Therapeutics Program at https://dtp.cancer.gov/organization/dscb/obtaining/available_plates.htm. All drugs and investigational agents were tested over a range starting from a high concentration at or near the clinical Cmax and decreasing in half-log increments. If the clinical Cmax for an agent had not been determined, the highest concentration tested was 10 microM.
Cell Lines. The patient-derived cancer cell (PDC) lines: 292921-168-R-J2-PDC, K24384-001-R-PDC, and 521955-158-R2-J5-PDC pancreatic carcinomas, 556581-035-R-J1 ovarian carcinoma, 324938-238-R-J1-PDC, 855422-203-R-J1-PDC and 883617-216-R-J1-PDC urothelial bladder carcinomas, 743489-274-T-PDC renal cell carcinoma, 138582-R-J1 Merkel cell tumor, K60290-347-R-J1 and K57222-313-R-J1-PDC glioblastomas, 653999-131-R-J2-PDC, LG0703-F948-PDC, and 349418-098-R-PDC non-small cell lung carcinomas, 885512-296-R-J2-PDC, 171881-019-R-J1-PDC breast carcinomas and 186277-243-T-J2-PDC and 233499-124-R-J2-PDC colon carcinomas were obtained from the NCI Patient-Derived Models Repository (PDMR, https://pdmr.cancer.gov). The established cell lines NCI/ADR-RES (RRID:CVCL_14520 and OVCAR-5 (RRID:CVCL_1628) ovarian carcinomas, 786-O (RRID:CVCL_1051) and A498 (RRID:CVCL_A498) renal cell carcinoma, NCI-H211 (ATCC, cat. CRL-5824; RRID:CVCL_1529), NCI-H196 (ATCC, cat. CRL-5823, RRID:CVCL_1509), SW 1271 (ATCC, cat. CRL-2177, RRID:CVCL_1716) and NCI-H1876 (ATCC, cat. CRL-5902, RRID:CVCL_1503) small cell lung carcinomas, MDA-MB-231 (RRID:CVCL_0062) and MDA-MB-468 (RRID:CVCL_0419)breast carcinomas (10-12). Pooled donor human umbilical vein endothelial cells (HUVEC, Lonza, cat. CC-2519) and human mesenchymal stem cells (hMSC, Lonza, cat. PT-2501) were purchased from Lonza (Walkersville, MD).
Cell Culture. All cells were maintained in an incubator at 37 degrees C and 5% CO2 with 95% humidity. The PDC lines were cultured according to standard operating procedures established by the NCI PDMR (https://pdmr.cancer.gov). Briefly all PDCs were thawed and cultured in Matrigel-coated flasks prepared with a working solution of 1X Ham's F-12 nutrient mix, without supplementation (Invitrogen, Waltham, MA, cat. 11765054), 100 U/mL penicillin-streptomycin (Invitrogen, cat. 15140122), and 2.5% Matrigel (Corning Inc., Corning, NY, cat. 354248) for the first three passages. […]

The term viability, T/C denotes the result in the treated group divided by that in the control group, in per cent. As usually defined, the IC50 is the concentration at which inhibition is half-maximal. As to `CC(C)c1c(-c2ccccc2)nc2c(C#N)c[nH]n2c1=O`, the viability, T/C is, setting by setting: (compound 0.0316 µM) 104% and 100%; (compound 0.1 µM) 98.4% and 97%; (compound 0.316 µM) 102% and 101%; (compound 1 µM) 99% and 102%; (compound 3.16 µM) 106% and 109%; (compound 10 µM) 107% and 108%. Also, under “curve of compound”, the IC50 was above 10 µM.

Turning to `CC1COCCN1c1cc(C2(S(C)(=N)=O)CC2)nc(-c2ccnc3[nH]ccc23)n1` (stereo not drawn), the viability, T/C is 91.2% and 107% (compound 0.0316 µM); 89.3% and 102% (compound 0.1 µM); 74.7% and 91.8% (compound 0.316 µM); 29.1% and 74.6% (compound 1 µM); 5.34% and 10.9% (compound 3.16 µM); 2.87% and 2.76% (compound 10 µM). Also, the IC50 (curve of compound) is 0.589 µM and 1.55 µM.

On to `COc1ccc([C@@H](O)c2cc(-c3ncnc4cc(N5CCOCC5)ccc34)c(F)cc2Cl)nn1`, for which the viability, T/C by setting is: (compound 0.0316 µM) 100% and 102%; (compound 0.1 µM) 104% and 98.7%; (compound 0.316 µM) 97% and 95.4%; (compound 1 µM) 96.4% and 97%; (compound 3.16 µM) 104% and 99.9%; (compound 10 µM) 40% and 38.6%. Moreover, the IC50 (curve of compound) is 8.26 µM and 8.03 µM.

In the case of `NC1CC1c1ccc(-c2cccc(O)c2)cc1` (stereo not drawn), the viability, T/C (compound 0.1 µM) is 109%; the viability, T/C (compound 0.316 µM) is 104% [middle of 25 runs]; the viability, T/C (compound 1 µM) was 99.9% [middle of 25 runs]; the viability, T/C (compound 3.16 µM) was 100% [middle of 24 runs]; the viability, T/C (compound 10 µM) is 98.8% [middle of 25 runs]. The IC50 (compound alone, run of 02/01/2022) is above 10 µM.

Take `NC1CCC(NC2CC2c2ccccc2)CC1` (stereo not drawn): the viability, T/C is 99% [middle of 24 runs] (compound 0.1 µM); 100% and 101% and 98.9% (compound 0.316 µM); 103% [middle of 25 runs] (compound 1 µM); 103% [middle of 25 runs] (compound 3.16 µM); 100% [middle of 23 runs] (compound 10 µM). For the same compound, the IC50 (compound alone, run of 01/18/2022) was above 10 µM.

Take `Nc1ncn(C2CC(O)C(CO)O2)c(=O)n1` (stereo not drawn) + NC1CC1c1ccc(-c2cccc(O)c2)cc1: the IC50 is above 1 µM (curve of first compound, second compound 0.1 µM); above 1 µM (curve of first compound, second compound 0.316 µM); 0.988 µM (curve of first compound, second compound 1 µM); 0.772 µM (curve of first compound, second compound 3.16 µM); 0.166 µM (curve of first compound, second compound 10 µM). Besides, the viability, T/C is 106% (second compound 0.1 µM, first compound 0.00316 µM); 104% (second compound 0.1 µM, first compound 0.01 µM); 99.4% (second compound 0.1 µM, first compound 0.0316 µM); 89.7% (second compound 0.1 µM, first compound 0.1 µM); 72.8% (second compound 0.1 µM, first compound 0.316 µM); 65.1% (second compound 0.1 µM, first compound 1 µM). Also, the viability, T/C reads like this: (second compound 0.316 µM, first compound 0.00316 µM) 101%; (second compound 0.316 µM, first compound 0.01 µM) 104%; (second compound 0.316 µM, first compound 0.0316 µM) 97.5%; (second compound 0.316 µM, first compound 0.1 µM) 86.1%; (second compound 0.316 µM, first compound 0.316 µM) 67.2%; (second compound 0.316 µM, first compound 1 µM) 55.6%. In addition, the viability, T/C (second compound 1 µM, first compound 0.00316 µM) is 101%; the viability, T/C (second compound 1 µM, first compound 0.01 µM) was 102%; the viability, T/C (second compound 1 µM, first compound 0.0316 µM) is 95.9%; the viability, T/C (second compound 1 µM, first compound 0.1 µM) is 85%; the viability, T/C (second compound 1 µM, first compound 0.316 µM) was 62.5%; the viability, T/C (second compound 1 µM, first compound 1 µM) is 50%. The viability, T/C reads like this: (second compound 3.16 µM, first compound 0.00316 µM) 102%; (second compound 3.16 µM, first compound 0.01 µM) 97.9%; (second compound 3.16 µM, first compound 0.0316 µM) 95.9%; (second compound 3.16 µM, first compound 0.1 µM) 80.4%; (second compound 3.16 µM, first compound 0.316 µM) 58.4%; (second compound 3.16 µM, first compound 1 µM) 47.6%. For the same compound, the viability, T/C (second compound 10 µM, first compound 0.00316 µM) was 96.9%; the viability, T/C (second compound 10 µM, first compound 0.01 µM) is 89.1%; the viability, T/C (second compound 10 µM, first compound 0.0316 µM) is 77.4%; the viability, T/C (second compound 10 µM, first compound 0.1 µM) is 58.7%; the viability, T/C (second compound 10 µM, first compound 0.316 µM) was 38.8%; the viability, T/C (second compound 10 µM, first compound 1 µM) was 31.9%.
